What was measured:
Assay type in all cases: biochemical
JAK2 = JAK2 (Homo sapiens, UniProt O60674); experiment: JAK kinase activity, homogeneous time-resolved fluorescence (JAK2 reaction system); conditions: ATP 2 μM, JAK2 protein 0.01 ng/μL
Procedure: (§1) The activity measurement method of JAK kinase was to use homogeneous time-resolved fluorescence technique. The reaction was performed in 384 shallow well plates with a total reaction volume of 10 μL. The mixture of kinase protein, compound, ATP and substrate was carried out in a reaction buffer of 50 mM Hepes (pH7.0), NaN3 0.02%, BSA 0.01%, 0.1 mM orthocanadate, 5 mM MgCl2, and 1 mM DTT. After reacting for 1 hour, antibody capable of recognizing substrate phosphorylation and dye XL-615 and detection buffer (Cisbio) containing EDTA were added to the system. The reaction signal of kinase was detected by PE company's porous plate detector. The parameter settings were excitation light at 320 nm, emission light at 615 nm and 665 nm. The activity of JAK is indirectly reflected by the signal ratio of 665 nm and 615 nm. In the reaction, the background well without enzyme and the total enzyme activity well without compound were set.
(§2) The IC50 value of the compound inhibiting protein was obtained by the formula: Y=100/(1+10^((Log IC50−X)*HillSlope)).
In JAK2 reaction system, the concentration of ATP was 2 μM, and the concentration of JAK2 protein was 0.01 ng/μL.

TYK2 = TYK2 (Homo sapiens, UniProt P29597); experiment: JAK kinase activity, homogeneous time-resolved fluorescence (TYK2 reaction system); conditions: ATP 2 μM, TYK2 protein 0.2 ng/μL; read-out: TYK 2 activity
Procedure: as §1, §2
In TYK2 reaction system, the concentration of ATP was 2 μM and the concentration of TYK2 protein was 0.2 ng/μL.

JAK3 = molecular target: T1, JAK3 (Homo sapiens, UniProt P52333); experiment: JAK kinase activity, homogeneous time-resolved fluorescence (JAK3 reaction system); conditions: ATP 2 μM, JAK3 protein 0.04 ng/μL; read-out: JAK 3 activity
T1 sequence (P52333 1-1124): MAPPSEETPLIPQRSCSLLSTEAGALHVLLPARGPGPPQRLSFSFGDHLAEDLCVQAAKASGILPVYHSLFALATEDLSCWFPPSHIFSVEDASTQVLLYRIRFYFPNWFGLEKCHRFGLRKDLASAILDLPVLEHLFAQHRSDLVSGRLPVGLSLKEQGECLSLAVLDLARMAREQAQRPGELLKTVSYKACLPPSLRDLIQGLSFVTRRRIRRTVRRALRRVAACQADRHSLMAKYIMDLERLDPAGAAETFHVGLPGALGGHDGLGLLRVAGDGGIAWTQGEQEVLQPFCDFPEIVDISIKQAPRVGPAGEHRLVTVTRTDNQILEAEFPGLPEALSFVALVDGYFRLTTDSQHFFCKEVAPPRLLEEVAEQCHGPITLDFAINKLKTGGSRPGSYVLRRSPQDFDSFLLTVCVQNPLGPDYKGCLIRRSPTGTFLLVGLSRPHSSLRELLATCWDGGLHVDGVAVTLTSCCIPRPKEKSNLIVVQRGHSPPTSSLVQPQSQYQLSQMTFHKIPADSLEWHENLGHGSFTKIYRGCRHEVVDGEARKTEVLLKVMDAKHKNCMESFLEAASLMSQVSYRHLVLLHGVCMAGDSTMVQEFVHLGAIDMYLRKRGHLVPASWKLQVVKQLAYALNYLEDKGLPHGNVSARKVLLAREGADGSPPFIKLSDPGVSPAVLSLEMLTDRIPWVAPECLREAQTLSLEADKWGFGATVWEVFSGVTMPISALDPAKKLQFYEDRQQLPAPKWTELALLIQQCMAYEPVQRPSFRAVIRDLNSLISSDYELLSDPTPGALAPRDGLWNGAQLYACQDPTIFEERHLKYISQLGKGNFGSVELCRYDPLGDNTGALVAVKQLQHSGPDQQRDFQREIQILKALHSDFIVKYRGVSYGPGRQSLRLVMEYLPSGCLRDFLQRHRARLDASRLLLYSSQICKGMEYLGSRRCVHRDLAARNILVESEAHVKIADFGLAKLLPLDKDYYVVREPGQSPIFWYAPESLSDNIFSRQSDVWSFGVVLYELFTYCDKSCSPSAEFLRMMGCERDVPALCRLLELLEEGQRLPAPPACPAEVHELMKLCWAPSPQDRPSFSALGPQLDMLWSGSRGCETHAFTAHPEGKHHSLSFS
Procedure: as §1, §2
In JAK3 reaction system, the concentration of ATP was 2 μM, and the concentration of JAK3 protein was 0.04 ng/μL.

JAK1 = JAK1 (Homo sapiens, UniProt P23458); experiment: JAK kinase activity, homogeneous time-resolved fluorescence (JAK1 reaction system); conditions: ATP 2 μM, JAK1 protein 0.2 ng/μL; read-out: JAK 1 activity
Procedure: as §1, §2
In JAK1 reaction system, the concentration of ATP was 2 μM, and the concentration of JAK1 protein was 0.2 ng/μL.

Chain of JAK2 (O60674 whole entry): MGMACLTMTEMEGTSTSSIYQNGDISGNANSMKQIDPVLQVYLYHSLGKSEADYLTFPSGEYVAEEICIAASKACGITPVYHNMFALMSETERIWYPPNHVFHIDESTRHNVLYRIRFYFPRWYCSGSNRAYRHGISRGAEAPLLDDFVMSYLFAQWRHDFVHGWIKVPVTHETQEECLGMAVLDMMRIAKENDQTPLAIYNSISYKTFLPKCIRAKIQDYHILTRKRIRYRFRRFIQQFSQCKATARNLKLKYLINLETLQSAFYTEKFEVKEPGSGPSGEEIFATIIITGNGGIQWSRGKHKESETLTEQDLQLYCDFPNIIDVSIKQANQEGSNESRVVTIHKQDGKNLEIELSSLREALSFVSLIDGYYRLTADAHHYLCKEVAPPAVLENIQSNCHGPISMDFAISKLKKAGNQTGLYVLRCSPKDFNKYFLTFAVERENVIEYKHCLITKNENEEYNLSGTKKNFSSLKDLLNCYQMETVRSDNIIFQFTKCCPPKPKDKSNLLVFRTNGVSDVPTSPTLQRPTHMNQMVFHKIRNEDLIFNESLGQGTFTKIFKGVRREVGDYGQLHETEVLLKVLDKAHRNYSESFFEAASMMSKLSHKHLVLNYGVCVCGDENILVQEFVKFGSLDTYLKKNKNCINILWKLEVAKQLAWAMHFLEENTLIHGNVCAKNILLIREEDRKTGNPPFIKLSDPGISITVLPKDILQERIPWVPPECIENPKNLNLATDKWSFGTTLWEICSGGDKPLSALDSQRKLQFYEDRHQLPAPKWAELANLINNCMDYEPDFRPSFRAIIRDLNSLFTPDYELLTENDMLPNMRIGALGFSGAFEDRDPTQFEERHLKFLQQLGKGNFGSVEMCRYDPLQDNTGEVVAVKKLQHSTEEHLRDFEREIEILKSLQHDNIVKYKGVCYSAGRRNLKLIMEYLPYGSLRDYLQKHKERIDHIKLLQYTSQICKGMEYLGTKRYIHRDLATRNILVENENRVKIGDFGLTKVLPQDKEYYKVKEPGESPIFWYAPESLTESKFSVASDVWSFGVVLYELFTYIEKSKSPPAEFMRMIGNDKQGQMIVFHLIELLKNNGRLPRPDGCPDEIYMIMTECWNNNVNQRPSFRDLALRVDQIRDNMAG
Chain of JAK1 (P23458 whole entry): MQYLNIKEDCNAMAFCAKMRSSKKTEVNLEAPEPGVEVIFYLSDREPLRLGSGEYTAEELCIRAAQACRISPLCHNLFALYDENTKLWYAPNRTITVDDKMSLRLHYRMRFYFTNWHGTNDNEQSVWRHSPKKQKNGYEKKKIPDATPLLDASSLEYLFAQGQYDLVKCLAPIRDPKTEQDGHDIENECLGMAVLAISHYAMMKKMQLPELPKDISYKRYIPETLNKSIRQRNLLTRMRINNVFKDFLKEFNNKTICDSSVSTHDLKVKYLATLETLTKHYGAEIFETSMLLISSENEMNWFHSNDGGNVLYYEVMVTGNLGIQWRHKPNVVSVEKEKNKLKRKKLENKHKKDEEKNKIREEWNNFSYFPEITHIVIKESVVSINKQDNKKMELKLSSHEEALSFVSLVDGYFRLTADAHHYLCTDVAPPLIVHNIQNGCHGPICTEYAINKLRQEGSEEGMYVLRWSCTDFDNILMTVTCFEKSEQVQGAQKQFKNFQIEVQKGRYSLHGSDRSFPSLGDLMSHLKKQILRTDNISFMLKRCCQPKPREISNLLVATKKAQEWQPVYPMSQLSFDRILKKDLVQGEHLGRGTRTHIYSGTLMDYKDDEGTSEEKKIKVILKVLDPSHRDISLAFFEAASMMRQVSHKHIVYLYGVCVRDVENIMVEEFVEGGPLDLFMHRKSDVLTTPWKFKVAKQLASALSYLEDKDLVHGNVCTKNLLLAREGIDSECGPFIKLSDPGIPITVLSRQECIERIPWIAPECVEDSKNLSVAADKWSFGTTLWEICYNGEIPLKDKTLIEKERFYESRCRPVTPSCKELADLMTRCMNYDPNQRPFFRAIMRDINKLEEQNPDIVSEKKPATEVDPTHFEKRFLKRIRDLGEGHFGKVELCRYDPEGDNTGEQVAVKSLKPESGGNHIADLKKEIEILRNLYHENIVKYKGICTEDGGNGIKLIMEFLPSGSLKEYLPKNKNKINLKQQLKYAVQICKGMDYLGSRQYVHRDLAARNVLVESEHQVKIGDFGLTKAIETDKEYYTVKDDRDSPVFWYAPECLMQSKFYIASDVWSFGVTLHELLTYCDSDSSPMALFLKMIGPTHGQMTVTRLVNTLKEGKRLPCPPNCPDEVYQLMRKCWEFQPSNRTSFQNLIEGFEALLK
Chain of TYK2 (P29597 whole entry): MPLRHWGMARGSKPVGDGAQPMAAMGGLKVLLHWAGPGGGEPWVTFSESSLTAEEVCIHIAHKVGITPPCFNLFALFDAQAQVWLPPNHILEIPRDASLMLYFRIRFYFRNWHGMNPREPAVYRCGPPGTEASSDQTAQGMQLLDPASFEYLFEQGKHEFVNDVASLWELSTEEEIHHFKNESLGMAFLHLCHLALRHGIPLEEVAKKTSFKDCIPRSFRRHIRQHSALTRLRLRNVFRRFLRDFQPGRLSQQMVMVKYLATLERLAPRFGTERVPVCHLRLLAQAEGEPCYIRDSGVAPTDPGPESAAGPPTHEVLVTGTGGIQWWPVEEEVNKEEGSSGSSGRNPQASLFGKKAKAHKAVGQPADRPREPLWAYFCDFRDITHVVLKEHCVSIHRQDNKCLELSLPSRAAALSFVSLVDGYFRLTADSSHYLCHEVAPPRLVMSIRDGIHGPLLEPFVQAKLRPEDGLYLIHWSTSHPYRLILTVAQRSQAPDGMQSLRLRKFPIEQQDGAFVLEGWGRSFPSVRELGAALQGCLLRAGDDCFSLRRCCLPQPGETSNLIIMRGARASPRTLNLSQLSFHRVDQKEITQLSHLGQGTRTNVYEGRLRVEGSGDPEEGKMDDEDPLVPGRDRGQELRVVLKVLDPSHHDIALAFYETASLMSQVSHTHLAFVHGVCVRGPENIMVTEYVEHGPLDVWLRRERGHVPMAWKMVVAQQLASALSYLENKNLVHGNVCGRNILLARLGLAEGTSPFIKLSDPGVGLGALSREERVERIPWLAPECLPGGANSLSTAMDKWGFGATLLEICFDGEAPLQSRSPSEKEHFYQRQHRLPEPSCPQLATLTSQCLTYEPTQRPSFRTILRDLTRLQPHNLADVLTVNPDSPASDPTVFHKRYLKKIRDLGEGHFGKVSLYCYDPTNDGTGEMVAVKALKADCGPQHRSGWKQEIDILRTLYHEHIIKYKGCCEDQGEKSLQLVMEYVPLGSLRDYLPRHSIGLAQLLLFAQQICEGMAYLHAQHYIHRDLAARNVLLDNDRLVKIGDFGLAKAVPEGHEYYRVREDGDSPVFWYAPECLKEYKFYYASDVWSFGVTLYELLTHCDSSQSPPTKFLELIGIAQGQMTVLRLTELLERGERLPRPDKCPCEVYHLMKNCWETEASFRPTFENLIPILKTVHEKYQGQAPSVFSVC

SMILES	IC50 (JAK2) [nM]	IC50 (TYK2) [nM]	IC50 (JAK3) [nM]	IC50 (JAK1) [nM]
Cc1cnc2nc1NCCCCCNC(=O)c1ccc(cc1)-c1cnc(F)c(c1)N2 [Compound 1, 2^6-fluoro-4^5-methyl-3,5,11-triaza-4 (2,4)-pyrimidina-2(3,5)-pyridina-1(1,4)-benzenacyclododecaphan-12-one]	1000 to 10000	> 10000	1000 to 10000	101 to 1000
Cc1cnc2nc1NCCCCCCC(=O)N1CCN(CC1)c1cnc(F)c(c1)N2 [Compound 2, 2^6-fluoro-4^5-methyl-3,5-diaza-4(2,4)-pyrimidina-1(1,4)-piperazina-2(3,5)-pyridinacyclododecaphan-12-one]	101 to 1000	1000 to 10000	1000 to 10000	101 to 1000
Cc1cnc2nc1NCCCCCNC(=O)c1ccc(c(F)c1)-c1cnc(F)c(c1)N2 [Compound 3, 1^2,2^6-difluoro-4^5-methyl-3,5,11-triaza-4(2,4)-pyrimidina-2(3,5)-pyridina-1(1,4)-benzenacyclododecaphan-12-one]	11 to 100	1000 to 10000	101 to 1000	11 to 100
O=C1NCCCCCNc2nc(ncc2F)Nc2cc(cnc2F)-c2ccc1cc2 [Compound 4, 2^6,4^5-difluoro-3,5,11-triaza-4(2,4)-pyrimidina-2(3,5)-pyridina-1(1,4)-benzenacyclododecaphan-12-one]	101 to 1000	> 10000	1000 to 10000	1000 to 10000
COc1cnc2nc1NCCCCCNC(=O)c1ccc(cc1)-c1cnc(F)c(c1)N2 [Compound 5, 2^6-fluoro-4^5-methoxy-3,5,11-triaza-4(2,4)-pyrimidina-2(3,5)-pyridina-1(1,4)-benzenacyclododecaphan-12-one]	1000 to 10000	> 10000	1000 to 10000	1000 to 10000
Cc1cnc2nc1NCCCCCNC(=O)c1ccc(cc1F)-c1cnc(F)c(c1)N2 [Compound 6, 1^3,2^6-difluoro-4^5-methyl-3,5,11-triaza-4(2,4)-pyrimidina-2(3,5)-pyridina-1(1,4)-benzenacyclododecaphan-12-one]	101 to 1000	1000 to 10000	101 to 1000	11 to 100
Cc1cnc2nc1NCCCCNC(=O)c1ccc(cc1F)-c1cnc(F)c(c1)N2 [Compound 7, 1^2,2^6-difluoro-4^5-methyl-3,5,10-triaza-4(2,4)-pyrimidina-2(3,5)-pyridina-1(1,4)-benzenacycloundecaphan-11-one]	101 to 1000	1000 to 10000	1000 to 10000	11 to 100
COc1cc2ccc1C(=O)NCCCCCNc1nc(ncc1C)Nc1cc-2cnc1F [Compound 8, 2^6-fluoro-1^3-methoxy-4^5-methyl-3,5,11-triaza-4(2,4)-pyrimidina-2(3,5)-pyridina-1(1,4)-benzenacyclododecaphan-12-one]	1000 to 10000	> 10000	1000 to 10000	101 to 1000
Cc1cnc2nc1NCCCCCNC(=O)c1ccc(cc1N)-c1cnc(F)c(c1)N2 [Compound 9, 1^3-amino-2^6-difluoro-4^5-methyl-3,5,11-triaza-4(2,4)-pyrimidina-2(3,5)-pyridina-1(1,4)-benzenacyclododecaphan-12-one]	101 to 1000	1000 to 10000	1000 to 10000	101 to 1000
Cc1cnc2nc1NCCCCCNC(=O)c1ccc(cc1[N+](=O)[O-])-c1cnc(F)c(c1)N2 [Compound 10, 2^6-fluoro-4^5-methyl-1^3-nitro-3,5,11-triaza-4(2,4)-pyrimidina-2(3,5)-pyridina-1(1,4)-benzenacydododecaphan-12-one]	101 to 1000	1000 to 10000	1000 to 10000	11 to 100
Cc1cc2ccc1C(=O)NCCCCCNc1nc(ncc1C)Nc1cc-2cnc1F [Compound 11, 2^6-fluoro-l^3,4^5-dimethyl-3,5,11-triaza-4(2,4)-pyrimidina-2(3,5)-pyridina-1(1,4)-benzenacyclododecaphan-12-one]	101 to 1000	1000 to 10000	1000 to 10000	101 to 1000
Cc1cnc2nc1NCCCCCCCNC(=O)c1ccc(cc1F)-c1cnc(F)c(c1)N2 [Compound 12, I^3,2^6-difluoro-4^5-methyl-3,5,13-triaza-4(2,4)-pyrimidina-2(3,5)-pyridina-1(1,4)-benzenacydododecaphan-12-one]	101 to 1000	1000 to 10000	1000 to 10000	101 to 1000
Cc1cnc2nc1NCCCCCCNC(=O)c1ccc(cc1F)-c1cnc(F)c(c1)N2 [Compound 13, I^3,2^6-difluoro-4^5-methyl-3,5,12-triaza-4(2,4)-pyrimidina-2(3,5)-pyridina-1(1,4)-benzenacyclotridecaphan-13-one]	101 to 1000	> 10000	1000 to 10000	101 to 1000
Cc1cnc2nc1NCCCCCNC(=O)c1ccc(cc1Cl)-c1cnc(F)c(c1)N2 [Compound 14, 1^3-chloro-2^6-fluoro-4^5-methyl-3,5,11-triaza-4(2,4)-pyrimidina-2(3,5)-pyridina-1(1,4)-benzenacyclododecaphan-12-one]	101 to 1000	1000 to 10000	1000 to 10000	101 to 1000
Cc1cnc2nc1Nc1cccc(c1)COCCCC(=O)N1CCN(CC1)c1cnc(F)c(c1)N2 [Compound 15, 2^6-fluoro-4^5-methyl-8-oxa-3,5-diaza-4(2,4)-pyrimidina-1(1,4)-piperazina-2(3,5)-pyridina-6(1,3)-benzenacyclododecaphan-12-one]	101 to 1000	1000 to 10000	101 to 1000	11 to 100
O=C1NCCOCc2cccc(c2)Nc2nc(ncc2F)Nc2cc(cnc2F)-c2ccc1cc2 [Compound 16, 2^6,4^5-difluoro-oxa-3,5,11-triaza-4(2,4)-pyrimidina-2(3,5)-pyridina-1(1,4),6(1,3)-dibenzenacyclododecaphan-12-one]	11 to 100	1000 to 10000	11 to 100	11 to 100
Cc1cnc2nc1Nc1cccc(c1)CCCNC(=O)c1ccc(cc1)-c1cnc(F)c(c1)N2 [Compound 17, 2^6-fluoro-4^5-methyl-3,5,10-triaza-4(2,4)-pyrimidina-2(3,5)-pyridina-1(1,4),6(1,3)-dibenzenacycloundecaphan-11-one]	< 10	11 to 100	11 to 100	< 10
Cc1cnc2nc1Nc1cccc(c1)CCCCNC(=O)c1ccc(cc1)-c1cnc(F)c(c1)N2 [Compound 18, 2^6-fluoro-4^5-methyl-3,5,11-triaza-4(2,4)-pyrimidina-2(3,5)-pyridina-1(1,4),6(1,3)-dibenzenacyclododecaphan-12-one]	< 10	11 to 100	< 10	< 10
COC(=O)c1cc2ccc1C(=O)NCCCCCNc1nc(ncc1C)Nc1cc-2cnc1F [Compound 19, methyl 2^6-fluoro-4^5-methyl-12-oxo-3,5,11-triaza-4(2,4)-pyrimidina-2(3,5)-pyridina-1(1,4)-benzenacyclododecaphane-1^3-carboxylate]	101 to 1000	> 10000	1000 to 10000	101 to 1000

Reference: patent US20230167114A1, “MACROCYCLIC JAK INHIBITOR AND USE THEREOF” (Biopolar Hongye (Guangdong) Pharmaceutical Co., Ltd., priority 2020, published 2023)
